Results: patent US7045532B2 (Millennium Pharmaceuticals, Inc., priority 1999, dated 2006)

Tests used:
ACE-2 [1] = molecular target: T1, ACE-2 (Homo sapiens, UniProt Q9BYF1); experiment: ACE-2 Competitive Substrate Assay (ACS Assay); type: biochemical; details: Ki class; compounds tested in 5% DMSO, 12 concentrations; read-out: Human ACE-2 Activity
T1 construct: a stop codon inserted after the serine immediately preceding the transmembrane domain; made in house; host or cells: CHO K1 cells (transient transfection, purified from conditioned medium)

ACE-2 [2] = molecular target: ACE-2 (Rattus norvegicus, UniProt Q5EGZ1); experiment: ACE-2 Competitive Substrate Assay, rat ACE-2; type: biochemical; details: Ki class; compounds tested in 5% DMSO, 12 concentrations
ACE (Sigma, A2580) = molecular target: T2, ACE (Sigma, A2580) (Sus scrofa, UniProt F1RRW5); experiment: ACE enzymatic activity assay; type: biochemical, porcine; details: Ki class; compounds tested in 5% DMSO, 12 concentrations
T2 construct: ACE from porcine kidney; purchased Sigma A2580; host or cells: porcine kidney
T2 sequence (F1RRW5 34-1309): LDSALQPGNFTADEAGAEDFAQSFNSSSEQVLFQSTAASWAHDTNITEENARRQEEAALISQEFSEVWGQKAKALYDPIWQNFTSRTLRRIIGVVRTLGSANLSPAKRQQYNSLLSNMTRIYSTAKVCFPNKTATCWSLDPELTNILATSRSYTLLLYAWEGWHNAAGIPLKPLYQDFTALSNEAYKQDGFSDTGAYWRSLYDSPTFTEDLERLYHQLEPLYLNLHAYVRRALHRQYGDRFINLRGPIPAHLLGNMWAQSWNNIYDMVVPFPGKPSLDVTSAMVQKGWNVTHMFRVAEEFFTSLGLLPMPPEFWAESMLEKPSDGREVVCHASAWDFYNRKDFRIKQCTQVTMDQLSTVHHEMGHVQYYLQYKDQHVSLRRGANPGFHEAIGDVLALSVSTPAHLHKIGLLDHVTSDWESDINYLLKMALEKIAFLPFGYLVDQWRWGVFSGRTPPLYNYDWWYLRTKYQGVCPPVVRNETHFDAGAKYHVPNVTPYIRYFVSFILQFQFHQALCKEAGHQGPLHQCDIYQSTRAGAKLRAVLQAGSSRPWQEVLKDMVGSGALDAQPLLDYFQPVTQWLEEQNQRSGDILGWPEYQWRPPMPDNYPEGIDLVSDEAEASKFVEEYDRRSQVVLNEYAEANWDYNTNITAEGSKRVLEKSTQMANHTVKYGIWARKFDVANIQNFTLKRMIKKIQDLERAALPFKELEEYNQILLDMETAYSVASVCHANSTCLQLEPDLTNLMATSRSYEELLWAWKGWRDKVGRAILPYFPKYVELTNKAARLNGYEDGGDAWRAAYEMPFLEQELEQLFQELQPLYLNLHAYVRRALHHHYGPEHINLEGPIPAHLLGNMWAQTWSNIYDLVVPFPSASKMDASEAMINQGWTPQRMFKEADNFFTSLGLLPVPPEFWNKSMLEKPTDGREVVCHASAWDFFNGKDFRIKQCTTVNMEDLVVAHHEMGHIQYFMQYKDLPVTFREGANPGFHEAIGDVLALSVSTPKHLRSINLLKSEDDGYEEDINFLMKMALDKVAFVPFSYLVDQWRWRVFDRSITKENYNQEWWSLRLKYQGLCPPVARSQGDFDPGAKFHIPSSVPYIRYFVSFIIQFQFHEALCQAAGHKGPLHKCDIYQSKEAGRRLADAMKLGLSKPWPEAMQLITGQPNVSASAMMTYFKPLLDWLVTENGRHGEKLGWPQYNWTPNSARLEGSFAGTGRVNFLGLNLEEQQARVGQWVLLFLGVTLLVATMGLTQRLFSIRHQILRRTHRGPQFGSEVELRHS
Method in brief: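 ACE (1 nM final) in 50 mM HEPES, 300 mM NaCl, 0.01% Brij-35, pH 7.5, with compound in 5% DMSO at 12 concentrations, 25 °C. Substrate cleavage run ~30 min, stopped with EDTA; fluorescence read at excitation 320 nm, emission 405 nm.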

Carboxypeptidase A = molecular target: T3, Carboxypeptidase A (Bos taurus, UniProt P00730); experiment: Carboxypeptidase A activity assay; type: biochemical; details: Ki class; compounds tested in 5% DMSO, 12 concentrations
T3 sequence (P00730 111-419): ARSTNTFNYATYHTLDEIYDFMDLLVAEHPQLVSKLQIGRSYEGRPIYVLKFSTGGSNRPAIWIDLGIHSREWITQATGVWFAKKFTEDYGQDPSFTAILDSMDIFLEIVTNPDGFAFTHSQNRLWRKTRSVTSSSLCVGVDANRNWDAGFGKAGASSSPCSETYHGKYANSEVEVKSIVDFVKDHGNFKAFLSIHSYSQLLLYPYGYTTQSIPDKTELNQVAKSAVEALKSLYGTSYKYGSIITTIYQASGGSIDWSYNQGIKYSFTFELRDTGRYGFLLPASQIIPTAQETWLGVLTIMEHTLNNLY
Method in brief: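 Bovine carboxypeptidase A activity followed at 328 nm in 5% DMSO, reaction stopped with EDTA. Activity measured at 12 compound concentrations. Ki derived from apparent Ki as Ki=Kiapp/(1+[S]/Km).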

T1 sequence (Q9BYF1 18-740 limits assumed): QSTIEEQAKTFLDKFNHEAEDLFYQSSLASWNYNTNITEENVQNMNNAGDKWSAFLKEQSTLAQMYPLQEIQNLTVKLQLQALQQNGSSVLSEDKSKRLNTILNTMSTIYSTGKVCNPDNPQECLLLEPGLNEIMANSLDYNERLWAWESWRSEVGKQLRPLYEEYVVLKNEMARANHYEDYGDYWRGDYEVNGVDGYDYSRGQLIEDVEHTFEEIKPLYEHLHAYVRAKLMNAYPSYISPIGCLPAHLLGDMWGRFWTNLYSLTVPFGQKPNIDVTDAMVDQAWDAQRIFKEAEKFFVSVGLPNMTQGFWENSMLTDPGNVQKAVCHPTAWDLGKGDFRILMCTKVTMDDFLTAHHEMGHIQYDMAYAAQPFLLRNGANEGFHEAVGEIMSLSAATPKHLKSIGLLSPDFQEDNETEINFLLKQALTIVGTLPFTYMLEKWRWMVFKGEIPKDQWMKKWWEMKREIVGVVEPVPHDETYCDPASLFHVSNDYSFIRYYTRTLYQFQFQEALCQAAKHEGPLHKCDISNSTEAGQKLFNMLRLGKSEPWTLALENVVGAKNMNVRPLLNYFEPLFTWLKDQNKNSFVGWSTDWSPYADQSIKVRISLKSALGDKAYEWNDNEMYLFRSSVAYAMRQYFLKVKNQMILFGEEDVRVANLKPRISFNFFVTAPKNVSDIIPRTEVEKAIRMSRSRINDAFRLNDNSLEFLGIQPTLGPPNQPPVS
Chain of ACE-2 (Rattus norvegicus, UniProt Q5EGZ1) (Q5EGZ1 18-805): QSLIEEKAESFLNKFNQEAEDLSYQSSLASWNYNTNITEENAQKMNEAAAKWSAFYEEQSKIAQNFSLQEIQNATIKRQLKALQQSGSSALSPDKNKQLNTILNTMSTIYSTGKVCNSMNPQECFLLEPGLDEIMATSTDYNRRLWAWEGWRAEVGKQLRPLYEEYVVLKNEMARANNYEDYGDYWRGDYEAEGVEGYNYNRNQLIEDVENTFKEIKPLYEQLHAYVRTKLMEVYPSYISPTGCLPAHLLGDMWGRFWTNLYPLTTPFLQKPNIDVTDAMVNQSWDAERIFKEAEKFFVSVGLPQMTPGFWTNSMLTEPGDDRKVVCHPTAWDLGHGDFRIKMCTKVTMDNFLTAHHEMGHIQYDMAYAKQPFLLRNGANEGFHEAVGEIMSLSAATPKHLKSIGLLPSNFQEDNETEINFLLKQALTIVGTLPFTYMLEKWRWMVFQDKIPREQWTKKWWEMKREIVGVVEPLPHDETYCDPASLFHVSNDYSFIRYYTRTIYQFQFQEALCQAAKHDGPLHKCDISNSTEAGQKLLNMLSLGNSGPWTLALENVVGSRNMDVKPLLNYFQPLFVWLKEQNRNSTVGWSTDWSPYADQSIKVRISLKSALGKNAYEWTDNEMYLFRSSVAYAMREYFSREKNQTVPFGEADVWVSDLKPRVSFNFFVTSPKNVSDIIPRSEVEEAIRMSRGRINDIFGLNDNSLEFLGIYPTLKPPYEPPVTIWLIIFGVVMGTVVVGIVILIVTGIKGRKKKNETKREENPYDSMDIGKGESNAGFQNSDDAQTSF

Row | Structure (SMILES) | Ki (ACE-2 [1]) [nM] | Ki (ACE-2 [2]) [nM] | Ki (ACE (Sigma, A2580)) [nM] | Ki (Carboxypeptidase A) [nM]
1 | CC(C)CC(N[C@H](Cc1cncn1C)C(=O)O)C(=O)O (stereo partly drawn) [CB, 2-[1-Carboxy-2-(3-methyl-3H-imidazol-4-yl)-ethylamino]-4-methyl-pentanoic acid] | > 500 | > 500 | > 50000 | > 50000
2 | CC(C)CC(N[C@H](Cc1cccnc1)C(=O)O)C(=O)O (stereo partly drawn) [CC, 2-(1-Carboxy-2-pyridin-3-yl-ethylamino)-4-methyl-pentanoic acid] | > 500 | > 500 | > 50000 | > 50000
3 | CC(C)CC(N[C@@H](Cc1nc[nH]n1)C(=O)O)C(=O)O (stereo partly drawn) [CD, 2-[1-Caboxy-2-(1H-[1,2,4]triazol-3-yl)-ethylamino]-4-methyl-pentanoic acid] | > 500 | 100 to 500 | > 50000 | > 50000
4 | CC(C)CC(N[C@H](Cc1nc[nH]n1)C(=O)O)C(=O)O (stereo partly drawn) [CE, 2-[1-Carboxy-2-(1H-[1,2,4]triazol-3-yl)-ethylamino]-4-methyl-pentanoic acid] | > 500 | > 500 | > 50000 | > 50000
5 | CC(C)CC(NC(Cc1nccs1)C(=O)O)C(=O)O (stereo not drawn) [CF, 2-(1-Carboxy-2-thiazol-2-yl-ethylamino)-4-methyl-pentanoic acid] | > 500 | 100 to 500 | > 50000 | > 50000
6 | CC(C)(C)C[C@H](N[C@@H](C(=O)O)c1ccccc1)C(=O)O [CJ, 2-[(Carboxy-phenyl-methyl)-amino]-4,4-dimethyl-pentanoic acid] | > 500 | > 500 | > 50000 | > 50000
7 | CC(C)(C)C[C@H](N[C@@H](CCc1ccccc1)C(=O)O)C(=O)O [CK, 2-(1-Carboxy-3-phenyl-propylamino)-4,4-dimethylpentanoic acid] | > 500 | 100 to 500 | > 50000 | > 50000
8 | O=C(O)[C@H](CCc1ccccc1)N[C@@H](CC1CC1)C(=O)O [CL, 2-(1-Carboxy-2-cyclopropyl-ethylamino)-4-phenyl-butync acid] | > 500 | 100 to 500 | > 50000 | > 50000
9 | CCCCCC[C@H](N[C@H](Cc1c[nH]cn1)C(=O)O)C(=O)O [CR, 2-[1-Carboxy-2-(1H-imidazol-4-yl)-ethylamino)octanoic acid] | > 500 | > 500 | > 50000 | > 50000
10 | CC(C)CC(N[C@H](Cc1cscn1)C(=O)O)C(=O)O (stereo partly drawn) [CV, 2-(1-Carboxy-2-thiazol-4-yl-ethylamino)-4-methyl-pentanoic acid] | > 500 | > 500 | > 50000 | > 50000
11 | CC(C)(C)C[C@H](N[C@H](CCc1ccccc1)C(=O)O)C(=O)O [DD, 2-(1-Carboxy-3-phenyl-propylamino)-4,4-dimethylpentanoic acid] | > 500 | > 500 | > 50000 | > 50000
12 | O=C(O)[C@H](CC1CC1)N[C@H](CCc1ccccc1)C(=O)O [DE, 2-(1-Carboxy-2-cyclopropyl-ethylamino)-4-phenyl-butync acid] | > 500 | > 500 | > 50000 | > 50000
